Measured values reported in patent US20260226414A1, “COMPOSITION FOR INDUCING DIFFERENTIATION OF MESENCHYMAL STEM CELLS INTO ADIPOCYTES” (ENCELL CO., LTD, priority 2023, published 2026).

What was measured:
Type in all cases: cell-based
[1] = test system: human umbilical cord blood-derived mesenchymal stem cells (UCB-MSCs); test: Adipogenesis induction, Oil Red O staining quantification
Procedure: (§1) Specifically, for Oil Red O (Sigma-Aldrich, St. Louis, MO, USA) staining, after completion of differentiation, the culture medium was removed from each well of the plate, followed by washing twice with 1×PBS and then fixing with 4% paraformaldehyde (PFA) for 10 minutes. Washing three times with deionized water and then washing once with 60% isopropyl alcohol were performed. The Oil Red O stock solution was diluted with deionized water in a ratio of 3:2 to prepare an Oil Red O working solution, 1 ml of which was then added to each well of the plate followed by reaction at room temperature for 30 minutes. After washing once with 60% isopropyl alcohol and washing three times with deionized water, the red-stained oil droplets were observed and photographed under a microscope, and the results are shown in FIG. 4a.
(§2) Specifically, the stained oil droplets were dissolved in 100% isopropyl alcohol, and 100 μl of the result was transferred to each well of the 96-well plate, followed by measurement using a microplate reader (absorbance at 540 nm). […]
After inducing adipogenesis for 7, 14, and 21 days by treating human umbilical cord blood-derived mesenchymal stem cells (UCB-MSCs) with nervonic acid, the oil droplets stained by Oil Red O staining are shown in FIG. 8a, and the results of quantification of the stained oil droplets are shown in FIG. 8b.

[2] = test system: human bone marrow-derived mesenchymal stem cells (BM-MSCs); test: as above; settings: 160 μM, days 7 and 14
Procedure: as §1, §2
After inducing adipogenesis for 7, 14, and 21 days by treating human bone marrow-derived mesenchymal stem cells (BM-MSC) with nervonic acid, the oil droplets stained by Oil Red O staining are shown in FIG. 11a, and the results of quantification of the stained oil droplets are shown in FIG. 11b.

[3] = test system: human adipose-derived mesenchymal stem cells; test: Cell viability / cytotoxicity by Cell Counting Kit-8 (CCK-8); settings: 0-280 μM nervonic acid, vs DMSO control
Procedure: The isolated human adipose-derived mesenchymal stem cells were treated with nervonic acid at different concentrations and cultured for 72 hours, after which cytotoxicity was measured. Specifically, Cell Counting Kit-8 (CCK-8, Dojindo, Tokyo, Japan) was used, and 1×10^3/well of cells were plated on a 96-well plate, stabilized for 24 hours, and then treated with nervonic acid at different concentrations (0, 40, 80, 120, 160, 200, 240, 280 μM), including the control group (DMSO), and cell viability was measured.
Before confirming the efficacy of nervonic acid to promote adipogenesis, cell viability was reconfirmed by treating cells with nervonic acid at various concentrations for 7 days. The specific method is the same as the method described above, and cell viability was measured by treatment with nervonic acid at different concentrations (0, 40, 80, 120, 160, 200, 240, 280 μM), including the control group (DMSO).

[4] = test system: human adipose-derived mesenchymal stem cells (AD-MSCs); test: Western blotting of adipogenesis-associated signaling molecules (phosphorylation ratios); settings: 160 μM, day 14, Western blotting
Procedure: After inducing adipogenesis for 14 days by treating human adipose-derived mesenchymal stem cells (AD-MSCs) with 160 μM nervonic acid, the expression of adipogenesis-associated signaling molecules at the protein level was compared using Western blotting.
More specifically, protein for Western blotting was extracted using the same method as the extraction method described above, and Western blotting was performed using the primary antibodies listed in Table 3 below.

[5] = test system: human adipose-derived mesenchymal stem cells (AD-MSCs); test: qRT-PCR of adipogenesis markers at the mRNA level (2^-ΔΔCt); settings: 160 μM, day 14, qRT-PCR
Procedure: After inducing adipogenesis for 14 days by treating human adipose-derived mesenchymal stem cells (AD-MSCs) with 160 μM nervonic acid, the gene expression of adipogenesis markers at the mRNA level was compared using qRT-PCR.
Specifically, RNA for qRT-PCR was extracted from mesenchymal stem cells with adipogenesis completed using TRIZOL from Invitrogen according to the method provided by the vendor, and cDNA was synthesized using SuperScript™ IV Reverse Transcriptase from Invitrogen. qRT-PCR was performed using the primers listed in Table 1 below, and the quantified results through 2^−ΔΔCt analysis are shown in FIG. 12.

[6] = test system: human umbilical cord-derived mesenchymal stem cells (WJ-MSCs); test: Adipogenesis induction, Oil Red O staining quantification
Procedure: as §1, §2
After inducing adipogenesis for 7, 14, and 21 days by treating human umbilical cord-derived mesenchymal stem cells (WJ-MSCs) with nervonic acid, the oil droplets stained by Oil Red O staining are shown in FIG. 10a, and the results of quantification of the stained oil droplets are shown in FIG. 10b.

[7] = test system: human adipose-derived mesenchymal stem cells (AD-MSCs); test: Western blotting of adipogenesis markers at the protein level; settings: 160 μM, day 14, Western blotting
Procedure: After inducing adipogenesis for 14 days by treating human adipose-derived mesenchymal stem cells (AD-MSCs) with 160 μM nervonic acid, the expression of adipogenesis markers at the protein level was compared using Western blotting.
Specifically, protein for Western blotting was extracted from mesenchymal stem cells with adipogenesis completed using RIPA lysis buffer, and Western blotting was performed using the primary antibodies listed in Table 2 below.

[8] = test system: human adipose-derived mesenchymal stem cells; test: Observation of oil droplet formation after 72 hours of culture with nervonic acid; settings: 72 hours treatment, different concentrations
Procedure: Human adipose-derived mesenchymal stem cells were treated with nervonic acid at different concentrations for 72 hours and cultured, after which the concentration at which oil droplets were generated was observed.

[9] = test system: human placenta-derived mesenchymal stem cells (PL-MSCs); test: Adipogenesis induction, Oil Red O staining quantification
Procedure: as §1, §2
After inducing adipogenesis for 7, 14, and 21 days by treating human placenta-derived mesenchymal stem cells (PL-MSCs) with nervonic acid, the oil droplets stained by Oil Red O staining are shown in FIG. 9a, and the results of quantification of the stained oil droplets are shown in FIG. 9b.

[10] = test system: human adipose-derived mesenchymal stem cells (AD-MSCs); test: Adipogenesis induction, Oil Red O staining and quantification (absorbance at 540 nm); settings: for Oil Red O stained oil droplets, fold increase compared to DMSO-treated control group: 160 μM, three lots of AD-MSCs
Procedure: To determine the appropriate concentration of nervonic acid having excellent efficacy in promoting adipogenesis, adipogenesis was induced for 7 days by treating human adipose-derived mesenchymal stem cells with nervonic acid at different concentrations (0, 40, 80, 120, 160, 200, 240, 280 μM), followed by Oil Red O staining to confirm the stained oil droplets.
as §1
After inducing adipogenesis for 7 days by treating human adipose-derived mesenchymal stem cells with nervonic acid at different concentrations (0, 40, 80, 120, 160, 200, 240, 280 μM), the results of quantification of the oil droplets stained by Oil Red O staining are shown in FIG. 4b.
Specifically, the stained oil droplets were dissolved in 100% isopropyl alcohol, and 100 μl of the result was transferred to each well of the 96-well plate, followed by measurement using a microplate reader (absorbance at 540 nm). […] Nervonic acid (Sigma-Aldrich, St. Louis, MO, USA) was dissolved in DMSO and then stored at −80° C. before use.
Adipogenesis was induced for 7 days by treating a total of three lots of human adipose-derived mesenchymal stem cells (AD-MSCs) with 160 μM nervonic acid, followed by observation of the oil droplets stained by Oil Red O staining, and the results are shown in FIG. 5a.

[11] = 160 μM, 7, 14 and 21 days (all cases)

SMILES: CCCCCCCC/C=C\CCCCCCCCCCCCCC(=O)O [nervonic acid]
- Oil Red O stained oil droplets, fold increase compared to DMSO control group [1, 11]: ≥ 2 fold
- Oil Red O stained oil droplets, fold increase compared to DMSO control group ([1]; 160 μM, day 21 (greatest)): 3.87±0.06 fold
- adipogenesis (Oil Red O) compared to DMSO control group [2]: slightly increased
- cell viability (cytotoxicity) ([3]; 72 hours (3 days)): no significant difference in cell viability
- cell viability (cytotoxicity) ([3]; 7 days): no significant difference in cell viability
- AKT phosphorylation ratio (activation indicator), fold increase compared to control group [4]: 1.36±0.16 fold
- B-catenin phosphorylation ratio (inactivation indicator), fold increase compared to control group [4]: 1.39±0.06 fold
- mTOR phosphorylation ratio (activation indicator), fold increase compared to control group [4]: 1.34±0.14 fold
- Adiponectin mRNA expression, fold increase compared to control group [5]: 1.37±0.19 fold
- LPL mRNA expression, fold increase compared to control group [5]: 1.44±0.12 fold
- PPARγ mRNA expression, fold increase compared to control group [5]: 1.74±0.35 fold
- c/EBPa mRNA expression, fold increase compared to control group [5]: 1.66±0.22 fold
- Oil Red O stained oil droplets, fold increase compared to DMSO control group [6, 11]: ≥ 2 fold
- Oil Red O stained oil droplets, fold increase compared to DMSO control group ([6]; 160 μM, day 21 (greatest)): 5.61±0.23 fold
- Adiponectin protein expression, fold increase compared to control group [7]: 2.35±0.55 fold
- C/EBPA protein expression, fold increase compared to control group [7]: 1.37±0.08 fold
- LPL protein expression, fold increase compared to control group [7]: 1.53±0.15 fold
- PPARγ protein expression, fold increase compared to control group [7]: 2.34±0.69 fold
- concentration at which oil droplets were observed [8]: ≥ 160 µM
- Oil Red O stained oil droplets, fold increase compared to DMSO control group [9, 11]: ≥ 2 fold
- Oil Red O stained oil droplets, fold increase compared to DMSO control group ([9]; 160 μM, day 21 (greatest)): 9.22±0.15 fold
- Oil Red O stained oil droplets, fold increase compared to DMSO-treated control group ([10]; 7 days): 2.13±0.27 fold
- Oil Red O stained oil droplets, fold increase compared to DMSO-treated control group ([10]; 14 days): 1.70±0.08 fold
- Oil Red O stained oil droplets, fold increase compared to DMSO-treated control group ([10]; 21 days): 1.27±0.14 fold
- concentration at which adipogenesis was most effectively induced (Oil Red O quantification) ([10]; 7 days adipogenesis, 0-280 μM tested): 160 µM
